# Measured values as given in patent EP0141884A1, “Novel phenylpiperazine derivatives, process for preparing them and therapeutic compositions containing them” (JUSTE, S.A. QUIMICO-FARMACEUTICA, priority 1983, dated 1985).
# Test system: female Swiss mice
# Assay: Analgesic activity, writhing test (2-phenyl-1,4-benzoquinone as nociceptive agent)
# Type: in vivo
# Settings: Mus musculus, po, 1 h, Table 1, oral route one hour before i.p. 0.02% 2-phenyl 1-4 benzoquinone, dose reducing writhes by 50%
# Protocol: The studies of analgesic activity for these compounds have been carried out over 2,178 mice by using the "writhing test" method. 2-Phenylbenzoquinone was used as nociceptive agent and the material under test was administered by the oral route. In all the cases the ED50, ED16 and ED84 (minimum dose for each product which reduces the writhes by 50, 16 and 84% respectively) were calculated, as well as the 95% confidence limits for the ED50. The oral acute toxicity study (LD50 determination) has been performed using 770 Swiss mice (half males and half females) weighing 18-22 g.
# A slight modification of the method described by Hendershot and Forshait J. Pharmacol. Exp. Ther. 125, 237 (1959) which employs as nociceptive agent a 0.02% hydroalcoholic solution of 2-phenyl 1-4 benzoquinone, was used. 0.2 ml Of this solution was administered by the i.p. route at a constant temperature of 37° C. The administration of this substance produced in the animals abdominal writhes which were easy to count. The animals used were female Swiss mice of weight 20 + 2 g. […] The value of ED50 was calculated according to the method of Litchfield and Wilcoxon J. Pharmacol. Exp. Ther. 99, 96 (1949).
smiles,measurement,value
"CC(C)Cc1ccc(C(C)C(=O)O)cc1 (stereo not shown) [2(4-isobutylphenyl) propionic acid, reference compound]",ED50,4.21 mg/kg
